Assay results from patent US5646028A, “Alkaline serine protease streptomyces griseus var. alkaliphus having enhanced stability against urea or guanidine” (The Clorox Company, priority 1995, dated 1997).
Values joined by “and” are separate entries in the source; they are usually repeats but may differ in a detail not shown here. Equal values may be shown once. Read-outs that look alike come from different tables or passages of the source. *1 amine or outer side, *2 acyl side, *3 side chain or, on linkers, in order; H or OH if unused. Where a SMILES comes first, the peptide text is derived from it. The star is where a group is joined. pNA = O=[N+]([O-])c1ccc(N*)cc1; Suc = O=C(CCC(=O)[*:2])[*:1]

What was measured:
SGPC [1] = assay type: biochemical, Streptomyces griseus; conditions: for % remaining activity compared to a noninhibited control: pH 8
SGPC [2] = assay: Substrate specificity of SGPC with tetrapeptide substrates sAAPXpNA; assay type: biochemical, Streptomyces griseus; conditions: pH 8.0, 10% DMSO, 24° C.
Procedure: The enzyme was assayed with a series of tetrapeptide substrates which had the form succinyl-Ala-Ala-Pro-X-para-nitroanilide (sAAPXpNA) (SEQ ID NOS. 3-20), where X is the P1 amino acid (the residue found on the N-terminal side of the bond which is cleaved). Kinetics constants kcat and Km were determined by assaying an appropriate dilution of SGPC with eight different concentrations of each substrate. Each substrate was dissolved in 100% DMSO to a concentration of 100 mM with the exception of sAAPQpNA (SEQ ID NO. 13) which was soluble only to a concentration of 15 mM. Five ul of an appropriate dilution of SGPC was placed in the wells of a microtiter dish. The reaction was initiated by adding 95 ul of the reaction mixture which was comprised of 50 ul of sodium bicine, pH 8.0, 35 ul of water, and 10 ul of the appropriate concentration of substrate in DMSO. The final concentration of DMSO was 10% in all of the reactions. All substrate concentrations were done in triplicate and rates were determined at 24° C. using a microtiter plate reader.

[3] = molecular target: succinyl-Ala-Ala-Pro-Phe-para-nitroanilide
[4] = for % activity compared to the non-treated control: 24° C., pH 5.0
[5] = Wash performance test, beaker-scale grass stain removal from cotton swatches
pH profile of SGPC = assay type: biochemical; conditions: 2 mM SAAPFpNA, 10% DMSO

Molecule	Km (SGPC [2]) [mM]	kcat (SGPC [2]) [S^-1]	kcat /Km (SGPC [2])	also measured
O=C(O)CN(CCN(CC(=O)O)CC(=O)O)CC(=O)O [EDTA, ethylenediaminetetraacetic acid]	–	–	–	inhibition of SGPC (in words) (SGPC [1]): no significant inhibition; % remaining activity compared to a noninhibited control (SGPC [1]): 97% and 94%
O=C(O)CI [IOAc, iodoacetic acid]	–	–	–	inhibition of SGPC (in words) (SGPC [1]): no significant inhibition; % remaining activity compared to a noninhibited control (SGPC [1]): 104% and 103%
O=S(=O)(F)Cc1ccccc1 [PMSF, phenylmethylsulfonyl fluoride]	–	–	–	inhibition of SGPC (in words) (SGPC [1]): inhibit SGPC; % remaining activity compared to a noninhibited control (SGPC [1]): 0.07% and 0.06%
C[C@H](NC(=O)CCC(=O)O)C(=O)N[C@@H](C)C(=O)N1CCC[C@H]1C(=O)N[C@@H](C)C(=O)Nc1ccc([N+](=O)[O-])cc1 [sAAPApNA] (Suc-AAPA-pNA)	5.29	36.1	6,826 M^-1 S^-1	–
C[C@H](NC(=O)CCC(=O)O)C(=O)N[C@@H](C)C(=O)N1CCC[C@H]1C(=O)N[C@@H](CS)C(=O)Nc1ccc([N+](=O)[O-])cc1 [sAAPCpNA] (Suc-AAPC-pNA)	4.26	61.3	14,380 M^-1 S^-1	–
C[C@H](NC(=O)CCC(=O)O)C(=O)N[C@@H](C)C(=O)N1CCC[C@H]1C(=O)N[C@@H](CC(=O)O)C(=O)Nc1ccc([N+](=O)[O-])cc1 [sAAPDpNA] (Suc-AAPD-pNA)	19.6	6.89	351 M^-1 S^-1	–
C[C@H](NC(=O)CCC(=O)O)C(=O)N[C@@H](C)C(=O)N1CCC[C@H]1C(=O)N[C@@H](CCC(=O)O)C(=O)Nc1ccc([N+](=O)[O-])cc1 [sAAPEpNA] (Suc-AAPE-pNA)	–	–	–	rates seen with the substrate (SGPC [2]): too samll to be reliable
C[C@H](NC(=O)CCC(=O)O)C(=O)N[C@@H](C)C(=O)N1CCC[C@H]1C(=O)N[C@@H](Cc1ccccc1)C(=O)Nc1ccc([N+](=O)[O-])cc1 [sAAPFpNA, succinyl-Ala-Ala-Pro-Phe-para-nitroanilide] (Suc-AAPF-pNA)	0.29	39.7	137,600 M^-1 S^-1	–
C[C@H](NC(=O)CCC(=O)O)C(=O)N[C@@H](C)C(=O)N1CCC[C@H]1C(=O)NCC(=O)Nc1ccc([N+](=O)[O-])cc1 [sAAPGpNA] (Suc-AAPG-pNA)	–	–	–	rates seen with the substrate (SGPC [2]): too samll to be reliable
C[C@H](NC(=O)CCC(=O)O)C(=O)N[C@@H](C)C(=O)N1CCC[C@H]1C(=O)N[C@@H](Cc1cnc[nH]1)C(=O)Nc1ccc([N+](=O)[O-])cc1 [sAAPHpNA] (Suc-AAPH-pNA)	1.09	24.0	21,960 M^-1 S^-1	–
CC[C@H](C)[C@H](NC(=O)[C@@H]1CCCN1C(=O)[C@H](C)NC(=O)[C@H](C)NC(=O)CCC(=O)O)C(=O)Nc1ccc([N+](=O)[O-])cc1 [sAAPIpNA] (Suc-AAPI-pNA)	–	–	–	rates seen with the substrate (SGPC [2]): too samll to be reliable
C[C@H](NC(=O)CCC(=O)O)C(=O)N[C@@H](C)C(=O)N1CCC[C@H]1C(=O)N[C@@H](CCCCN)C(=O)Nc1ccc([N+](=O)[O-])cc1 [sAAPKpNA] (Suc-AAPK-pNA)	4.22	10.9	2,577 M^-1 S^-1	–
CC(C)C[C@H](NC(=O)[C@@H]1CCCN1C(=O)[C@H](C)NC(=O)[C@H](C)NC(=O)CCC(=O)O)C(=O)Nc1ccc([N+](=O)[O-])cc1 [sAAPLpNA] (Suc-AAPL-pNA)	0.92	24.8	27,030 M^-1 S^-1	–
CSCC[C@H](NC(=O)[C@@H]1CCCN1C(=O)[C@H](C)NC(=O)[C@H](C)NC(=O)CCC(=O)O)C(=O)Nc1ccc([N+](=O)[O-])cc1 [sAAPMpNA] (Suc-AAPM-pNA)	0.39	39.3	100,400 M^-1 S^-1	–
C[C@H](NC(=O)CCC(=O)O)C(=O)N[C@@H](C)C(=O)N1CCC[C@H]1C(=O)N[C@@H](CC(N)=O)C(=O)Nc1ccc([N+](=O)[O-])cc1 [sAAPNpNA] (Suc-AAPN-pNA)	2.91	35.3	12,160 M^-1 S^-1	–
C[C@H](NC(=O)CCC(=O)O)C(=O)N[C@@H](C)C(=O)N1CCC[C@H]1C(=O)N[C@@H](CCC(N)=O)C(=O)Nc1ccc([N+](=O)[O-])cc1 [sAAPQpNA] (Suc-AAPQ-pNA)	14.3	36.3	2,547 M^-1 S^-1	–
C[C@H](NC(=O)CCC(=O)O)C(=O)N[C@@H](C)C(=O)N1CCC[C@H]1C(=O)N[C@@H](CCCNC(=N)N)C(=O)Nc1ccc([N+](=O)[O-])cc1 [sAAPRpNA] (Suc-AAPR-pNA)	4.17	16.7	4,001 M^-1 S^-1	–
C[C@H](NC(=O)CCC(=O)O)C(=O)N[C@@H](C)C(=O)N1CCC[C@H]1C(=O)N[C@@H](CO)C(=O)Nc1ccc([N+](=O)[O-])cc1 [sAAPSpNA] (Suc-AAPS-pNA)	3.73	7.05	1,893 M^-1 S^-1	–
C[C@H](NC(=O)CCC(=O)O)C(=O)N[C@@H](C)C(=O)N1CCC[C@H]1C(=O)N[C@H](C(=O)Nc1ccc([N+](=O)[O-])cc1)[C@@H](C)O [sAAPTpNA] (Suc-AAPT-pNA)	4.34	7.69	1,769 M^-1 S^-1	–
CC(C)[C@H](NC(=O)[C@@H]1CCCN1C(=O)[C@H](C)NC(=O)[C@H](C)NC(=O)CCC(=O)O)C(=O)Nc1ccc([N+](=O)[O-])cc1 [sAAPVpNA] (Suc-AAPV-pNA)	1.08	0.53	1,422 M^-1 S^-1	–
C[C@H](NC(=O)CCC(=O)O)C(=O)N[C@@H](C)C(=O)N1CCC[C@H]1C(=O)N[C@@H](Cc1ccc(O)cc1)C(=O)Nc1ccc([N+](=O)[O-])cc1 [sAAPYpNA] (Suc-AAPY-pNA)	0.49	27.7	61,770 M^-1 S^-1	–
S. griseus protease C (enzyme)	–	–	–	kcat /Km (sAAPKpNA): 2580 M^-1 S^-1; kcat /Km (sAAPApNA): 6830 M^-1 S^-1; kcat /Km (sAAPNpNA): 12200 M^-1 S^-1; kcat /Km [3]: 138000 M^-1 S^-1; kcat /Km (sAAPSpNA): 1890 M^-1 S^-1; kcat /Km (sAAPQpNA): 2550 M^-1 S^-1; kcat /Km (sAAPCpNA): 14400 M^-1 S^-1; kcat /Km (sAAPYpNA): 61800 M^-1 S^-1; kcat /Km (sAAPRpNA): 4000 M^-1 S^-1; kcat /Km (sAAPMpNA): 100000 M^-1 S^-1; kcat /Km (sAAPVpNA): 1420 M^-1 S^-1; kcat /Km (sAAPDpNA): 351 M^-1 S^-1; kcat /Km (sAAPTpNA): 1770 M^-1 S^-1; kcat /Km (sAAPLpNA): 27000 M^-1 S^-1; kcat /Km (sAAPHpNA): 22000 M^-1 S^-1
SGPC: alkaline serine protease from Streptomyces griseus var. alkaliphilus No. 33, apparent molecular weight about 19,000 daltons (protein, UniProt P52320 203-457, looked up) Streptogrisin-C: ADIRGGDAYYMNGSGRCSVGFSVTRGTQNGFATAGHCGRVGTTTNGVNQQAQGTFQGSTFPGRDIAWVATNANWTPRPLVNGYGRGDVTVAGSTASVVGASVCRSGSTTGWHCGTIQQLNTSVTYPEGTISGVTRTSVCAEPGDSGGSYISGSQAQGVTSGGSGNCSSGGTTYFQPINPLLQAYGLTLVTSGGGTPTDPPTTPPTDSPGGTWAVGTAYAAGATVTYGGATYRCLQAHTAQPGWTPADVPALWQRV	–	–	–	% activity compared to the non-treated control ([4]; 2 M Guanidine, 1 hour): 125.7%; % activity compared to the non-treated control ([4]; 2 M Guanidine, 24 hours): 105.7%; % activity compared to the non-treated control ([4]; 2 M Urea, 1 hour): 103.5%; % activity compared to the non-treated control ([4]; 2 M Urea, 24 hours): 98.1%; effect on the activity (in words) ([4]; 2 M to 6 M urea, 24 hr vs 1 hr): very little effect; % activity compared to the non-treated control ([4]; 4 M Guanidine, 1 hour): 130.4%; % activity compared to the non-treated control ([4]; 4 M Guanidine, 24 hours): 55.8%; % activity compared to the non-treated control ([4]; 4 M Urea, 1 hour): 118.2%; % activity compared to the non-treated control ([4]; 4 M Urea, 24 hours): 112.4%; % activity compared to the non-treated control ([4]; 6 M Guanidine, 1 hour): 98.0%; % activity compared to the non-treated control ([4]; 6 M Guanidine, 24 hours): 10.1%; % activity compared to the non-treated control ([4]; 6 M Urea, 1 hour): 116.4%; % activity compared to the non-treated control ([4]; 6 M Urea, 24 hours): 112.9%; effect on the activity (in words) ([4]; Guanidine 4 M to 6 M, 24 hr): substantial losses of activity; effect on the activity (in words) ([4]; Guanidine at 2 M, 24 hr): slight effect; effectiveness against grass stain compared with Savinase ([5]; equal weight of protease in the wash liquor): more effective than Savinase; (delta) % SRE (percent stain removal over a control containing no enzyme) ([5]; grass stain, cotton swatches, 37° C., powdered detergent 104 g/69 liters, pH 10.5, 0.25 mg protease/500 ml wash liquor): 59.6%; pH optimum (in words) (pH profile of SGPC): highly alkaline pH optimum
